Source: patent US10689357B2, “N-acylethanolamine hydrolyzing acid amidase (NAAA) inhibitors and use thereof” (Northeastern University, priority 2018, dated 2020)
Structures can show the parent of a compound that is named as a salt.

target: hNAAA (Homo sapiens (Human), UniProt Q02083); test: NAAA fluorescence-based inhibition assay with PAMCA substrate; type: biochemical; settings: purified activated hNAAA, PAMCA 5 μM, pH 4.5, 37° C.
Source text: In order to have an assay method more conducive to high-throughput screening than those published for measuring the NAE hydrolyzing activity of NAAA [Proc. Natl. Acad. Sci. USA. 2009; 106(49):20966-71], the fluorogenic PEA analog N-(4-methyl coumarin)palmitamide (PAMCA), which is hydrolyzed to fluorescent 7-amino-4-methyl coumarin (AMC) and palmitic acid, was developed. [J. Proteome Res. 2012; 11(2):972-981], [PloS One. 2012; 7: e43877]. For three point concentration inhibition assays with hNAAA the following procedure was used. Purified activated NAAA (final concentration of 0.25 μg/mL) was incubated in assay buffer (100 mM citrate-phosphate buffer, pH 4.5, 3 mM DTT, 0.1% Triton X-100, 0.05% BSA, and 150 mM NaCl) made up to a total volume of 180 μL, followed by addition of the compound dissolved in 10 μL DMSO (along with DMSO neat for the control sample) with the final concentrations for each compound of 100, 10, and 1 μM, in triplicate on a 96 well plate. These samples were allowed to incubate for 15 min at room temperature and then 10 μL of a PAMCA stock solution in DMSO (final PAMCA concentration [5 μM]) was added. After 5 minutes of agitation on a shaking plate, the reaction was allowed to proceed at 37° C. for 120 minutes, with fluorescence readings taken every 10 minutes at a wavelength of 460 nm (using an excitation wavelength of 360 nm) on a Synergy HT Plate Reader using Gen5 software from Bio-Tek. The enzyme activity was calculated by converting the relative fluorescence units to AMC formed, using a standard curve of AMC.
For compounds that inhibit hNAAA in range IC50<1 μM, full inhibition curves using eight different concentrations of inhibitor (8 point assay) were generated. The assay procedure used was the same as the three point assay. For ostensibly covalent compounds (as observed by a significant decrease in the slope of a plot of fluorescence vs. time in three point screen), samples were allowed to incubate for 2 hours at 37° C., instead of 15 minutes, before addition of 10 μL of a PAMCA stock solution in DMSO for a final PAMCA concentration of 5 μM. After 5 minutes of agitation on a shaking plate, the reaction was allowed to proceed at 37° C. for 120 minutes. Inhibition constants were calculated using pro Fit software (Quantum Soft, Uetikon am See, Switzerland) and a Levenberg-Marquardt algorithm.

Sequence of hNAAA (Q02083 29-125): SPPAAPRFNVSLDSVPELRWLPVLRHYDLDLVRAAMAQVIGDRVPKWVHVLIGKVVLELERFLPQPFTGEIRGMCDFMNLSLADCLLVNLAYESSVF
Sequence of hNAAA (Q02083 126-359): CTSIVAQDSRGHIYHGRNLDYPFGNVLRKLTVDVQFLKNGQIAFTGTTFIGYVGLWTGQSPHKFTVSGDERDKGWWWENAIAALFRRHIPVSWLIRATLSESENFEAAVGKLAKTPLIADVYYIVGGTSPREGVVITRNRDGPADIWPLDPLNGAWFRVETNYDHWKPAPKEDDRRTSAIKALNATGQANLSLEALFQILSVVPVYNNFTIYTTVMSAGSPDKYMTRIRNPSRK

Compound | IC50 [nM]
COc1ccc(C23CC(C(=O)N[C@H]4C[C@@H](N=C=S)C4)(C2)C3)cc1 [Example 37, N-((1s,3s)-3-isothiocyanatocyclobutyl)-3-(4-methoxyphenyl)bicyclo[1.1.1]pentane-1-carboxamide] | 110 to 1000
COc1ccc(-c2cnc(C(=O)N[C@H]3C[C@@H](N=C=S)C3)c(N3CCC3)c2)cc1 [Example 38, 3-(Azetidin-1-yl)-N-((1s,3s)-3-isothiocyanatocyclobutyl)-5-(4-methoxyphenyl)picolinamide] | 110 to 1000
COc1ccc(-c2ccc(C(C)O[C@H]3C[C@@H](N=C=S)C3)nc2)cc1 (some centres unmarked) [Example 39, 2-(1-((1s,3s)-3-Isothiocyanatocyclobutoxy)ethyl)-5-(4-methoxyphenyl)pyridine] | 10 to 100
COc1ccc(-c2ccc(C(C)O[C@H]3C[C@@H](N=C=S)C3)nc2)cc1F (some centres unmarked) [Example 40, 5-(3-Fluoro-4-methoxyphenyl)-2-(1-((1s,3s)-3-isothiocyanatocyclobutoxy)ethyl)pyridine] | 110 to 1000
COc1ccc([C@H]2C[C@@H](C(=O)N[C@H]3C[C@@H](N=C=S)C3)C2)cc1 [Example 41, (1s,3S)—N-((1s,3S)-3-Isothiocyanatocyclobutyl)-3-(4-methoxyphenyl) cyclobutane-1-carboxamide] | 10 to 100
COc1ccc(-c2ccc(CO[C@H]3C[C@@H](N=C=S)C3)nc2)nc1 [Example 42, 6′-(((1s,3s)-3-Isothiocyanatocyclobutoxy)methyl)-5-methoxy-2,3′-bipyridine succinate] | 10 to 100
COc1ccc(-c2ccc(CO[C@H]3C[C@@H](N=C=S)C3)nc2)cc1F [Example 43, 5-(3-Fluoro-4-methoxyphenyl)-2-(((1s,3s)-3-isothiocyanatocyclobutoxy)methyl)pyridine citrate] | 10 to 100
(1r, 3r)-3-Isothiocyanatocyclobutyl 5-(4-methoxyphenyl)picolinate [Example 21] | 10 to 100
